In patent US20230241088A1, “COMPOSITION FOR PREVENTING OR TREATING LUNG CANCER COMPRISING ORTHO-TOPOLIN RIBOSIDE AS ACTIVE INGREDIENT” (CHUNG-ANG UNIVERSITY INDUSTRY-ACADEMY COOPERATION FOUNDATION, priority 2022, published 2023):

Tests used:
[1] = tested on: A549 cells; experiment: Glycolytic function analysis (Seahorse XFe24, glycoPER); format: cell-based, Human; details: oTR 5, 10, and 50 μM, 48 hours, FIG. 5A
Experimental: (§1) Mitochondrial and glycolytic functions were assessed using Seahorse XFe24 analyzer (Agilent Technologies, Lexington, Mass., USA). A549 cells were seeded in a cell culture plate at a density of 1.5×10^4 cells/well. Cells were treated with oTR (5, 10, and 50 μM) for 48 hours after achieving approximately 70-80% confluency. The glycolytic and mitochondrial functions were determined by measuring the proton efflux rate (PER) and oxygen consumption rate (OCR), respectively. Glycolytic PER (glycoPER) was obtained by subtracting mitochondria-derived protons from the total PER. The analyses were conducted according to the manufacturer's instructions.
To investigate real-time changes in cellular metabolic functions, glycoPER (pmol H+/min) and OCR were analyzed (FIG. 5). GlycoPER reflects glycolytic functions, and OCR reflects mitochondrial respiration. […] Measurement of compensatory glycolysis was achieved by blocking oxidative phosphorylation using rotenone/antimycin.

[2] = tested on: xenograft tumor tissues; experiment: GC-MS and nanoESI-MS metabolite and lipid profiling of xenograft tumor tissues; format: in vivo, nude mice (female, BALB/cSlc-nu/nu)
Experimental: The tumor tissue was weighed above 25 mg, and 0.3 mL of ice-cold methanol containing 0.1% BHT was added, followed by homogenization for 1 minutes. Homogenized samples were centrifuged at 10,000×g for 15 minutes at 4° C. The supernatant corresponding to 10 mg of the tissue was used, and metabolites and lipids were extracted using modified Folch method.
To perform metabolite and lipid analyses of the extracted samples of NSCLC cells and xenograft tumor tissues, GC-MS and nanoESI-MS analyses were conducted according to a previously described method. For quality control (QC), the equal volume of mixture was taken from each sample to be analyzed.
Raw data files of the lipid analysis (*.raw) were converted into *.mzXML format using the Proteo Wizard MSConvert software. The metabolite and lipid mass spectra were converted using the Expressionist® MSX software (version 2013.0.39, Genedata, Basel, Switzerland) for data processing. The data obtained from NSCLC cells were divided by the peak intensity of the internal standard and total protein content for normalization. The data obtained from the NSCLC xenograft model were divided by the peak intensity of the internal standard for normalization. The data obtained thereby were used for fold-change analysis using the MetaboAnalyst (version 5.0; http://www.metaboanalyst.ca). SPSS software (version 26, IBM, Somers, N.Y.) was used for significance examination for the results, and identification was conducted by Student's t-test and Mann-Whitney test. All data were mean-centered and pretreated to Pareto scaling for principal component analysis (PCA) and orthogonal partial least-squares discriminant analysis (OPLS-DA), performed using the SIMCA-P software (version 15.0.2, Sartorius Stedim Data Analytics AB, Umea, Sweden). Cross validations and permutation tests (100 times) were performed to evaluate the goodness of fit value and predictability of the OPLS-DA model. Volcano plots were generated using the GraphPad Prism 9.0.
oTR-induced alterations of metabolic and lipidomic profiles were analyzed using 5 NSCLC cell lines (A549, H1437, H2087, H522, and HCC827) and xenograft tumor tissues by performing GC-MS and nanoESI-MS analyses. The relative changes in identified metabolites and intact lipid species are shown as fold-changes. Myo-inositol, amino acids (β-alanine, aspartate, serine, threonine, glutamate, glycine, proline, and tyrosine), organic acids (malate and lactate), pyrimidines (uracil and uridine), creatinine, hypoxanthine, and putrescine decreased in oTR-treated NSCLC cells compared to those in NSCLC cells. These metabolites were the outcomes of consistent and significant alterations in 3 NSCLC cell lines compared to those of respective controls.

[3] = tested on: p-ERK, ERK, p-AKT, AKT, cleaved caspase-3 in NSCLC tumor tissue; experiment: Immunoblot analysis of NSCLC tumor tissue lysates; format: in vivo, nude mice (female, BALB/cSlc-nu/nu); details: FIG. 7
Experimental: The immunoblot analysis was carried out according to a previously described method. A549 cells (4×10^5) were grown to approximately 70-80% confluency and treated with oTR (5, 10, and 50 μM) for 48 hours. The cell lysates and tissue lysates were prepared and subjected to SDS-PAGE for immunoblotting with the respective antibodies. Anti-caspase-3 (9662), anti-p-AKT (4058), and anti-AKT (9272) antibodies were purchased from Cell Signaling Technology (Danvers, Mass., USA). Anti-ERK1/ERK2 (MAB1576) and anti-p-ERK1/ERK2 (AF1018) were purchased from R&D Systems (Minneapolis, Minn., USA). Anti-LC-III (NB100-2331) antibody was purchased from Novus Biologicals (Littleton, Colo., USA). Anti-β-actin (sc-47778) and anti-GAPDH (sc-47724) antibody was purchased from Santa Cruz Biotechnology (Santa Cruz, Calif., USA).

[4] = tested on: A549 cells; experiment: Mitochondrial function analysis (Seahorse XFe24, OCR); format: cell-based, Human
Experimental: as §1
To measure ATP production, oligomycin, an ATPase inhibitor, was added to the cells to inhibit mitochondria-derived ATP synthesis. Then, when carbonyl cyanide-4-(trifluoromethoxy)phenylhydrazone (FCCP), a mitochondrial oxidative phosphorylation uncoupler, was added to the cells, the OCR reached the maximal level, indicating maximal mitochondrial respiration. Spare respiratory capacity (SRC) indicates the amount of extra ATP produced by oxidative phosphorylation when energy demand of the cells increases suddenly. […] To determine the mitochondrial fuel source (glucose, glutamine, and fatty acid) that was better utilized in NSCLC cells, investigation was performed on the OCR of each fuel source in the absence and presence of each inhibitor. UK5099 (for glucose), BPTES (for glutamine), and etomoxir (for fatty acid).

[5] = both oTR groups (100 and 150 mg/kg)
[6] = oTR-treated NSCLC tumor tissues

OC[C@H]1O[C@@H](n2cnc3c(NCc4ccccc4O)ncnc32)[C@H](O)[C@@H]1O [oTR, ortho topolin riboside]
basal and compensatory glycolytic rates (glycoPER) [1]: significant decrease
PC, PE, PG, and PI species levels ([2]; 100 mg/kg and 150 mg/kg): increase
PS species levels ([2]; 150 mg oTR-treated group vs control): increased
level of aspartate, ascorbate, glucose, glutamate, ornithine, phenylalanine, proline, serine, threonine ([2]; 150 mg/kg group vs control): significant reduction
citrate, ornithine, and uridine levels [2, 5]: significantly decreased
β-alanine, aminomalonate, glycerol, glycine, and uracil levels [2, 5]: increased
expression of cleaved caspase-3 ([3]; oTR (150 mg/kg)-treated group): significantly increased
ERK expression [3, 6]: significant increase
p-AKT and AKT expressions [3, 6]: no significant changes
p-ERK expression [3, 6]: significant decrease
glucose oxidation (mitochondrial fuel capacity) ([4]; oTR 10 μM, FIG. 5C): did not differ
glutamine and fatty acid oxidations (mitochondrial fuel capacity) ([4]; oTR 10 μM, FIG. 5C): significantly reduced
OCR (oxygen consumption rate) ([4]; oTR 5, 10, and 50 μM, 48 hours, FIG. 5B): reduced
basal OCR, ATP production, and SRC ([4]; oTR-treated vs untreated A549 cells): Significant reduction
